The source of these data is publication PMC6156508, “GA-Hecate antiviral properties on HCV whole cycle represent a new antiviral class and open the door for the development of broad spectrum antivirals” (Scientific Reports, 2018).

SMILES strings stand for the structures. Where a SMILES comes first, the peptide text is derived from it. The star is where a group is joined. Galloyl = O=C(c1cc(O)c(O)c(O)c1)*

Data set [1] relates to J6/JFH-1-infected Huh-7.5 cells. The data set is described as follows: Necrosis analysis (propidium iodide staining). The format is cell-based, human. As to the method:
Apoptosis and Necrosis analysis
The ability of GA-Hecate inducing cell death by necrosis and apoptosis was assessed in 48 and 72h post-treatment (p.t) at concentrations: 1.25; 2.5; 5; 10; 20 and 40 μM. For necrosis evaluation, cells were stained using Propidium Iodide at […], which was incubated with the cells 15 minutes prior fixation. Subsequently, cells were fixed using paraformaldehyde 4% in PBS (PFA 4%) for 15 minutes and nuclei stained using DAPI 1 μg/mL for 5 minutes. For apoptosis evaluation, cells were fixed using PFA 4% during 15 minutes, permeabilized using Triton X- 100 (Sigma) 0.1% in PBS and stained using anti-Active Caspase 3 antibody (host: Rabbit) (1:200 in BSA 1% in PBS) (Abcam 13847) for 2h. Then cells were rinsed using PBS and stained using anti-rabbit AlexaFluor 594 (1:500 in BSA 1% PBS) (Thermo Scientific A21207) during 2h. Nuclei were stained using DAPI for 5 minutes. For both assays, cells were counted in 5 randomly chosen fields in duplicate. […]
Figure S2. Cell death mechanisms triggered by GA-Hecate 48h post-treatment in […]
J6/JFH-1- infected Huh-7.5 cells. […]
B) Necrosis assessment.
Necrotic cells were stained using Propidium iodide […], which is able to cross only damaged membranes and reaches the nucleus. PI is represented in red and cell nuclei were counterstained using DAPI (blue). Bars represents the average of 5 fields in duplicate. Ns: non statistically significant. *** Pvalue< 0.001vs 0.00 µM […]
Figure S3. Cell death mechanisms triggered by GA-Hecate 72h post-treatment in […]

Data set [2] has as its system HCVcc particles released from treated cells, naïve Huh-7.5 cells. The data set is described as follows: Infectivity assay of released particles (focus forming units). The class given is cell-based, hepatitis C virus. As to the method:
Figure 6 GA-Hecate effect on HCV Release and infectivity. (A) HCV-infected Huh-7.5 cells were treated for 24 h with GA-Hecate. RNA was isolated and summited to qPCR for HCV 5′ UTR. Intracellular HCV expression was normalized by GAPDH, and extracellular HCV expression was calculated by absolute quantification. The difference between the intra and extracellular RNA expression represents the HCV release. Bars represent triplicate samples of three independent assays. Naringenin (200 μM) was used as a positive control of HCV release inhibition and water was a negative control of HCV release inhibition. ^aP < 0.001 vs Control (−), intracellular. ^bP < 0.001 vs Control (−), extracellular. F = 22.58, df (row factor) = 4. (B) Infectivity. HCV-infected Huh-7.5 cells were treated for 24 h with GA-Hecate, and then the supernatant was collected and used to infect naïve Huh-7.5 cells. The capacity of HCVcc particles to generate a new infection after GA-Hecate treatment is represented by the bars. […]
To assess the effect of GA-Hecate on HCV virion infectivity, a similar process to release/assembly was done and the supernatant (extracellular content) was collected and used to infect naïve Huh-7.5 cells. HCV infectivity was evaluated by the focus forming units assay, following an indirect immunofluorescence (IFI) assay for HCV NS5A as previously described by Batista et al.[35].

Data set [3] has as its system lipid droplets in HCVcc-infected Huh-7.5 cells. Briefly: Intracellular distribution and quantity of neutral lipids (Bodipy 493/503). The class given is cell-based, human. The conditions noted are these: 20 μM; 48 h; HCV-infected Huh-7.5. The source says:
Figure 7 GA-Hecate effect on lipid droplets. (A) Pattern of lipid droplet distribution on treated and non-treated HCV-infected Huh-7.5 cells and the lipid droplets relative quantification. Blue: DAPI staining nuclei; Green: lipid droplets stained by Bodipy 493/503; Red: HCV NS5A represented by Alexa fluor-594. (B) Light Scattering Dynamic showing synthetic unilamellar vesicle size with lipid droplet constitution after treatment with the following: I. Water (negative control of size change); II. Triton-X 100 (positive control of size change); III. Hecate; IV. GA-Hecate.
To evaluate the GA-Hecate effect on the intracellular neutral lipid distribution, the GA-Hecate-treated cells at maximum non-cytotoxic concentration (20 μM) were evaluated 48 h post-treatment. For this purpose, 2 × 10^4 Huh-7.5 cells that were infected with HCVcc were seeded in a 24-well plate 24 h […] the treatment. On the following day, GA-Hecate or water (peptide diluent) were added in the plate and incubated for 48 h. […] To quantify the intracellular lipid content, two - four photos/well were performed and the fluorescence intensity was measured by ImageJ software. Bodipy fluorescence was normalized with DAPI fluorescence.

A short description of data set [4]: Permeabilization of LUVs, carboxyfluorescein release (viral envelope/cell membrane mimetic). The conditions noted are these: POPC:POPS 9:1. The source says:
Figure 8 Permeabilization of LUVs. (A) Percentage of carboxyfluorescein release in POPC:POPS (9:1) Post addition of LUVs at different concentrations of Hecate and GA-Hecate. (B) Percentage of carboxyfluorescein release results in POPC:Cholesterol (9:1) LUVs after the addition of different concentrations of Hecate and GA-Hecate. The bars indicate SD.
Phosphatidylcholine:Cholesterol (POPC:Cholesterol - 9:1; m:m) and phosphatidylcholine:phosphatidylserine (POPC:POPS - 9:1; m:m) vesicles, which mimic lipid droplets and the virus envelope, respectively, were prepared at a concentration of 15 mmol·L^−1. Each mixture was submitted to lipid solubilization in chloroform/methanol (4:1; v:v) and subsequent evaporation by nitrogen gas flow, resulting in the formation of a lipid film. The product evaporated using a vacuum procedure for complete removal of the solvents and then a solution containing the fluorophore carboxyfluorescein (CF; 50 mM) was added. The mixture was warmed up to 60 °C, sonicated and agitated for equal periods for 10 min to allow for the formation of vesicles encapsulated with CF. Following this, the mixture was processed in an extruder machine (Avanti Polar Lipids) to obtain large unilamellar vesicles. The obtained solution was then applied to a size exclusion column with Sephadex G20 resin for separation of the unencapsulated CF. […]

For the molecule `CC(C)C[C@H](NC(=O)[C@H](C)NC(=O)[C@H](CCCCN)NC(=O)[C@H](CCCCN)NC(=O)[C@H](CC(C)C)NC(=O)[C@H](C)NC(=O)[C@H](CCCCN)NC(=O)[C@H](CCCCN)NC(=O)[C@H](CC(C)C)NC(=O)[C@H](CCCCN)NC(=O)[C@H](CCCCN)NC(=O)[C@H](CC(C)C)NC(=O)[C@H](C)NC(=O)[C@H](CCCCN)NC(=O)[C@H](CCCCN)NC(=O)[C@H](CC(C)C)NC(=O)[C@H](C)NC(=O)[C@H](CCCCN)NC(=O)[C@H](CC(C)C)NC(=O)[C@H](C)NC(=O)[C@H](CC(C)C)NC(=O)[C@H](C)NC(=O)[C@H](Cc1ccccc1)NC(=O)c1cc(O)c(O)c(O)c1)C(N)=O` [GA-Hecate] (Galloyl-FALALKALKKALKKLKKALKKAL-NH2), the necrosis entry is on record as “about 20%” in data set [1] (20 μM, over the time (48 and 72 h)); 50% in data set [1] (40 μM, 48h p.t., propidium iodide); 10% in data set [1] (40 μM, 72h p.t., propidium iodide). Further, the “infection inhibition by released particles (infectivity)” value in data set [2] (20 μM, supernatant of cells treated 24 h on naïve Huh-7.5) is “approximately 100%”. Moreover, the “share of released HCV able to generate a new infection” value in data set [2] (supernatant of GA-Hecate-treated cells) was “less than 1%”. Moreover, the “effect on lipid droplets distribution and quantity” value in data set [3] was “altered the lipid droplets distribution and reduced its quantity”. In addition, in data set [4], the “interaction capacity relative to Hecate (fold lower)” value is on record as 2- to 3 fold. In addition, the “permeabilization of LUVs (carboxyfluorescein release)” value in data set [4] (peptide 0.1 μM, 1% Triton = 100%, once in triplicate) is given as around 20%.
